Values quoted from earlier work in patent US10494420B2, “Mast cell stabilizers for treatment of hypercytokinemia and viral infection” (priority 2016, dated 2019).

How the values were obtained:
[1] = system: H5N1 Influenza Virus; conditions: mouse, in vivo
[2] = intranasal delivery versus any other route, rabbits
[3] = system: mast cells

In the case of CN1CCC(=C2c3ccccc3CC(=O)c3sccc32)CC1 [ketotifen], the impact on survival [1] is given as “increased when the compounds were combined”, the survival of mice [1] is given as “increase survival of mice” and the bioavailability [2] is given as “more bioavailable using intranasal delivery”. The “mast cell degranulation and release of mediators (histamine, TNF-α, prostaglandins, leukotrienes, interleukins)” value [3] was “inhibit mast cell degranulation”.
